Results as given in PubChem BioAssay (NCI).
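Each compound was tested at five concentrations against cells in 96-well plates for 48 hours. Abbreviation: GI50, concentration required for 50% inhibition of growth. TGI is the concentration that stops growth completely.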

Legend:
Test in all cases: NCI-60 cell line screen, 48 h
SK-MEL-5 melanoma = test system: SK-MEL-5 melanoma
SN12C renal = test system: SN12C renal
HT29 colon = test system: HT29 colon
SNB-19 CNS = test system: SNB-19 CNS
LOX IMVI melanoma = test system: LOX IMVI melanoma
NCI-H226 lung = test system: NCI-H226 lung
SW-620 colon = test system: SW-620 colon
SF-295 CNS = test system: SF-295 CNS
M14 melanoma = test system: M14 melanoma
K-562 leukemia = test system: K-562 leukemia

COc1ccc2nc3cccc([N+](=O)[O-])c3c(NCCNCCN(C)C)c2c1
GI50 (SK-MEL-5 melanoma): 0.0325 µM
TGI (SK-MEL-5 melanoma): 0.13 µM
GI50 (SN12C renal): 0.141 µM
TGI (SN12C renal): 0.592 µM
GI50 (HT29 colon): 0.0238 µM
TGI (HT29 colon): 0.143 µM
GI50 (SNB-19 CNS): 0.223 µM
TGI (SNB-19 CNS): 1.17 µM
GI50 (LOX IMVI melanoma): 0.0652 µM
TGI (LOX IMVI melanoma): 0.305 µM
GI50 (NCI-H226 lung): 0.219 µM
TGI (NCI-H226 lung): 0.629 µM
GI50 (SW-620 colon): 0.0486 µM
TGI (SW-620 colon): 2.27 µM
GI50 (SF-295 CNS): 0.0626 µM
TGI (SF-295 CNS): 0.696 µM
GI50 (M14 melanoma): 0.0734 µM
TGI (M14 melanoma): 0.208 µM
GI50 (K-562 leukemia): 0.0222 µM
TGI (K-562 leukemia): 0.0987 µM

CC(C)(C)c1nc(-c2cccc(NS(=O)(=O)c3c(F)cccc3F)c2F)c(-c2ccnc(N)n2)s1
GI50 (SK-MEL-5 melanoma): 0.0129 µM
TGI (SK-MEL-5 melanoma): > 100 µM
GI50 (SN12C renal): 17.7 µM
TGI (SN12C renal): > 100 µM
GI50 (HT29 colon): < 0.01 µM
TGI (HT29 colon): > 100 µM
GI50 (SNB-19 CNS): 71.5 µM
TGI (SNB-19 CNS): > 100 µM
GI50 (LOX IMVI melanoma): 0.233 µM
TGI (LOX IMVI melanoma): > 100 µM
GI50 (NCI-H226 lung): 32.9 µM
TGI (NCI-H226 lung): > 100 µM
GI50 (SW-620 colon): 23.9 µM
TGI (SW-620 colon): > 100 µM
GI50 (SF-295 CNS): 55.6 µM
TGI (SF-295 CNS): > 100 µM
GI50 (K-562 leukemia): 25.6 µM
TGI (K-562 leukemia): > 100 µM

O=C1C=C(Nc2ccc(S(=O)(=O)Nc3ncccn3)cc2)c2ccccc2C1=O
TGI (SK-MEL-5 melanoma): 32.9 µM
TGI (SN12C renal): 35.9 µM
TGI (HT29 colon): 45 µM
TGI (SNB-19 CNS): 90.2 µM
TGI (LOX IMVI melanoma): 30 µM
TGI (NCI-H226 lung): 56.8 µM
TGI (SW-620 colon): 35.1 µM
TGI (SF-295 CNS): 35 µM
TGI (M14 melanoma): 34.1 µM
TGI (K-562 leukemia): 49.4 µM

O=C1Nc2ccccc2/C1=C/c1cn(CC(O)Cn2cc(/C=C3\C(=O)Nc4ccccc43)c3ccccc32)c2ccccc12 (stereo not drawn)
GI50 (SK-MEL-5 melanoma): 1.98 µM
TGI (SK-MEL-5 melanoma): 3.82 µM
GI50 (SN12C renal): 1.52 µM
TGI (SN12C renal): 3.16 µM
GI50 (HT29 colon): 1.42 µM
TGI (HT29 colon): 3.52 µM
GI50 (SNB-19 CNS): 1.21 µM
TGI (SNB-19 CNS): 3.82 µM
GI50 (LOX IMVI melanoma): 0.326 µM
TGI (LOX IMVI melanoma): 1.31 µM
GI50 (NCI-H226 lung): 1.68 µM
TGI (NCI-H226 lung): 3.55 µM
GI50 (SW-620 colon): 1.34 µM
TGI (SW-620 colon): 3.48 µM
GI50 (SF-295 CNS): 1.66 µM
TGI (SF-295 CNS): 3.28 µM
GI50 (M14 melanoma): 1.32 µM
TGI (M14 melanoma): 2.83 µM
GI50 (K-562 leukemia): 1.19 µM
TGI (K-562 leukemia): 3.56 µM

O=c1[nH]c(=O)n(C2CC(O)C(CO)O2)cc1COCC(F)(F)F (stereo not drawn)
TGI (SK-MEL-5 melanoma): > 100 µM
TGI (SN12C renal): > 100 µM
TGI (HT29 colon): > 100 µM
TGI (SNB-19 CNS): > 100 µM
TGI (LOX IMVI melanoma): > 100 µM
TGI (SW-620 colon): > 100 µM
TGI (SF-295 CNS): > 100 µM
TGI (M14 melanoma): > 100 µM
TGI (K-562 leukemia): > 100 µM

CCC[CH2][Sn]([CH2]CCC)([CH2]CCC)[O]C(=O)C(OC)c1ccccc1 (stereo not drawn)
GI50 (SK-MEL-5 melanoma): 0.133 µM
TGI (SK-MEL-5 melanoma): 0.262 µM
GI50 (SN12C renal): 0.117 µM
TGI (SN12C renal): 0.24 µM
GI50 (HT29 colon): 0.0507 µM
TGI (HT29 colon): 0.168 µM
GI50 (SNB-19 CNS): 0.156 µM
TGI (SNB-19 CNS): 0.301 µM
GI50 (LOX IMVI melanoma): 0.0309 µM
TGI (LOX IMVI melanoma): 0.13 µM
GI50 (NCI-H226 lung): 0.104 µM
TGI (NCI-H226 lung): 0.252 µM
GI50 (SW-620 colon): 0.112 µM
TGI (SW-620 colon): 0.236 µM
GI50 (SF-295 CNS): 0.13 µM
TGI (SF-295 CNS): 0.259 µM
GI50 (M14 melanoma): 0.133 µM
TGI (M14 melanoma): 0.263 µM

C=Cc1c(C)c2cc3[nH]c(cc4nc(cc5nc(cc1[nH]2)C(C)=C5CCC(=O)N(CC)CC)C(CCC(=O)N(CC)CC)=C4C)c(C)c3C=C
TGI (SK-MEL-5 melanoma): > 100 µM
TGI (SN12C renal): > 100 µM
TGI (HT29 colon): > 100 µM
TGI (LOX IMVI melanoma): > 100 µM
TGI (SW-620 colon): > 100 µM
TGI (SF-295 CNS): > 100 µM
TGI (M14 melanoma): > 100 µM
TGI (K-562 leukemia): > 100 µM
